Laboratory results from patent publication US4550186A, “Binuclear copper (II) carboxylates formed from amine-carboxyboranes” (Duke University, priority 1983, dated 1985).

Experiments:
[1] = tested on: deoxyribonucleic acid synthesis of Ehrlich ascites cells; experiment: In vivo thymidine incorporation into deoxyribonucleic acid; parameters: species or system mouse
Method: CF1 male mice (~30 g) were implanted with 2×10^6 Ehrlich ascites tumor cells, intraperitoneally on Day 0. Compound I was suspended by homogenation in 0.05% polysorbate.80-water and administered intraperitoneally at 10 and 20 mg/kg for 9 days to determine its effectiveness for inhibition of tumor growth. Mice were sacrificed on Day 10, and the ascites fluid was collected from the peritoneal cavity. The volume and ascrit (packed cell volume) were determined for each animal and the percent inhibition of tumor growth was calculated. For the metabolic studies, mice were treated on Days 8 and 9 with 10 mg/kg of Compound I, intraperitoneally. The animal was sacrificed on Day 10 and the ascites fluid harvested. […]
For in vivo studies, incorporation of thymidine into deoxyribonucleic acid was determined by the method of Chae et al [Proc. Am. […] The deoxyribonucleic acid was isolated and the tritium content was determined in a toluene based scintillation fluid. The deoxyribonucleic acid concentration was determined by the diphenylamine reaction using calf thymus deoxyribonucleic acid as a standard. Uridine incorporation into ribonucleic acid was determined using 10 μCi of 5,6-^3 H-uridine (22.4 Ci/mmol). […] Leucine incorporation into protein was determined by the method of Sartorelli [Biochem. Biophys. […] Protein content was determined by the Lowry procedure using bovine serum albumin as a standard.

Acetyl CoA Carboxylase = target: T1, Acetyl CoA Carboxylase (Mus musculus, UniProt Q5SWU9); experiment: In vitro liver enzyme study: acetyl CoA carboxylase; assay type: biochemical; conditions: in vitro CF1 liver
T1 construct: 10% homogenates of CF1 male mouse liver; from tissue; host or cells: CF1 male mouse liver, 10% homogenate
Method: In vitro enzymatic studies were determined using 10% homogenates of CF1 male mouse liver with 50-200 μM of test drugs. In vivo enzymatic studies were determined using 10% homogenates of liver from CF1 male mice obtained after administering the agents for 16 days at a dose ranging from 2.5-20 mg/kg/day intraperitoneally. The liver homogenates for both in vitro and in vivo studies were prepared in 0.25M sucrose and 0.001M (ethylenedinitrilo)tetraacetic acid. Acetyl coenzyme A synthetase and adenosine triphosphate dependent citrate lyase activities were determined spectrophotometrically at 540 nm as the hydroxylamate of acetyl coenzyme A formed after 30 min at 37° C. Mitochondrial citrate exchange was determined by the procedure of Robinson et al [Eur. J. Biochem., 216, 63 (1970)] using ^14 C-sodium bicarbonate (41 mCi/mmol) incorporated into mitochondrial ^14 C-citrate after isolating rat mitochondria (9000 g×10 min) from the homogenates. The exchanges of the ^14 C-citrate were determined after incubating the mitochondrial fraction which was loaded with labeled citrate and test drugs for 10 min. Then the radioactivity was measured in the mitochondrial and supernantant fractions in scintillation fluid and expressed as a percentage. Cholesterol side chain oxidation was determined by the method of Kritchevsky and Tepper [Artherosclerosis, 18, 93 (1973)] using (26-^14 C) cholesterol (50 mCi/mmol) and mitochondria isolated from rat liver homogenates. […] Fatty acid synthetase activity was determined by the method of Brady et al [J. Biol. Chem., 235, 3093 (1960)] using [2-^14 C] malonyl-coenzyme A (37.5 mCi/mmol) which was incorporated into newly synthesized fatty acids that were extracted with ether and counted. Acyl transferase activity was determined with glycerol-3phosphate [L-2-^3 H(N)] […] HCl and counted. Phosphatidate phosphohydrolase activity was measured as the inorganic phosphate released after 30 min from phosphatidic acid by the method of Mavis et al [J. Lipid Res., 19, 467 (1978)]. […]

## {Cu[(CH3)3 N.BH2 CO2 ]2.(CH3)3 N.BH2 COOH} [Compound I]
[1]; 10 mg/kg/day I.P. on Days 8 and 9
  3H-Thymidine incorporation into deoxyribonucleic acid: 43 ± 5 % Control
[1]; 10 day Ehrlich ascites cells
  thymidine incorporation into deoxyribonucleic acid inhibited: 57%
Acetyl CoA Carboxylase; 50 μM
  Acetyl CoA Carboxylase: 96 ± 6 Percent Control
Acetyl CoA Carboxylase; 100 μM
  Acetyl CoA Carboxylase: 93 ± 5 Percent Control
Acetyl CoA Carboxylase; 200 μM
  Acetyl CoA Carboxylase: 92 ± 5 Percent Control
